How the values were obtained:
[1] = tested on: human umbilical vein endothelial cell (HUVEC) NO production; experiment: HUVEC NO production (NOx in cell culture medium, chemiluminescence); format: cell-based; conditions: for NO production, positive and negative controls: Experiment 1, acute, 2 hours; for HUVEC Cells NOx, 24 hr / HUVEC Cells NOx, 5 d / HUVEC Cells NOx, 2 hr: Table 2 summary
Description: Several compounds were investigated for their effect on nitric oxide (NO) production and vasorelaxation using serum-free human umbilical vein endothelial cell (HUVEC) culture system in vitro and rabbit aortic ring model ex vivo, respectively. NO production by endothelial cells and relaxation of pre-constricted aortic rings are two main markers for evaluating vascular effects of test compounds.
HUVECs obtained from a single donor were cultured in serum free, low protein (0.5 g/l), antibiotic-free cell culture medium supplemented with essential growth factors, nutrients and minerals. […] The cell culture medium was substituted with apo-transferrin, superoxide dismutase, and catalase to exclude secondary effects of test compounds involving their auto-oxidation mediated hydrogen peroxide formation.
NO production was evaluated by measuring the total amount of all major nitric oxide end products (NOx, including nitrate, nitrite, nitrosothiols) present in the cell culture medium. […] The amount of NO released from the culture medium was subsequently evaluated by measuring the chemiluminescence emitted during the stoichiometrical reaction between ozone and NO using a NO Analyzer (Sievers Instruments, Inc. Boulder, Colo.).
The data presented herein were obtained from three experiments and were expressed as the concentration of NO present (in μmol/l) (as NOx) in the cell culture medium+/−standard deviation (SD). The data were corrected for the NOx intrinsically present in the fully supplemented cell culture medium and normalized with respect to the volume of media from which the sample was drawn. Data were analyzed using Student's t-test with a 95% level of confidence. P values equal to or less than 0.05 were defined as statistically significant.
For the acute effect test, HUVECs were incubated with the test compounds for 2 hours at concentrations of 100 nM, 1 μM, and 10 μM at 37° C. and 5% CO2. […] (FIG. 1)
For the chronic effect test, HUVECs were incubated with 5 subsequent doses of test compounds, each for 24 hours. After each 24 hour treatment, culture medium was replaced.
For the acute effect test, HUVECs were incubated with a single dose of the test compounds for 24 hours at concentrations of 100 nM, 1 μM, and 10 μM at 37° C. and 5% CO2.

[2] = tested on: rabbit aortic rings; experiment: Relaxation of norepinephrine pre-constricted rabbit aortic rings ex vivo; conditions: for Aortic Ring Effective Conc,: Table 1 summary
Description: Several compounds were investigated for their effect on nitric oxide (NO) production and vasorelaxation using serum-free human umbilical vein endothelial cell (HUVEC) culture system in vitro and rabbit aortic ring model ex vivo, respectively. NO production by endothelial cells and relaxation of pre-constricted aortic rings are two main markers for evaluating vascular effects of test compounds. Effect of different procyanidins on endothelium-dependent relaxation was tested in an ex vivo experiment performed as previously described by Karim et al., J. Nutrl Suppl., 130 (8S): […]-[…] (2000), the relevant portions of which are hereby incorporated herein by reference. The advantage of using this method is that it assesses functional vascular end points. […] In summary, rabbit aortic rings were obtained from male New Zealand White rabbits. Following isolation, the rings were mounted in oxygenated Kreb's buffer, and pre-constricted with norepinephrine (NE) (10^-6 M). […] A positive control acetylcholine (10^-9 to 10^-4 M) and a negative control L-NAME were included in the experiment. Use of L-NAME, which is a NO synthase (NOS) inhibitor, allows for differentiating between endothelium dependent and endothelium independent relaxation events. […] The relaxation response was measured as a function of the decrease in the tension (g) exerted by the aortic rings over time […]. Data obtained were expressed as a percent relaxation of the norepinephrine (NE) constricted rings. The same statistical approach as described above was used. Dose response curves were obtained by plotting the average percent relaxation (+/-SE) against the concentrations used.

[3] = tested on: HUVEC; experiment: HUVEC-mediated MTT reduction (toxic effects); conditions: for cell-mediated MTT reduction: Experiment 2, chronic, 5 x 24 hours, 10 μM (20 μM for the Epicatechin gallates)
Description: Cell counts and total protein were used to assess intra-assay variation. Potential toxic effects of tested compounds were also monitored (MTT reduction was measured).

[4] = Experiment 1, chronic, 5 subsequent 24 hour doses
[5] = Experiment 2, single dose, 24 hours, 1 μM
[6] = Experiment 2, single dose, 24 hours, 10 μM
[7] = Experiment 4, 10^−9M -10^4M (so in the source)

Compound: NCCc1c[nH]cn1 [histamine, reference compound]
- NO production, positive and negative controls ([1]; compared to vehicle): statistically significant increase in NO production

Compound: O=C(O[C@@H]1[C@@H](c2c(O)cc(O)c3c2O[C@H](c2ccc(O)c(O)c2)[C@@H](OC(=O)c2cc(O)c(O)c(O)c2)C3)c2c(O)cc(O)cc2O[C@@H]1c1ccc(O)c(O)c1)c1cc(O)c(O)c(O)c1 [EC-(4β→8)-C digallate, (−)-Epicatechin-(4β,8)-(+)-Catechin Digallate]
- relaxation response, percent relaxation of NE constricted rings ([2]; Experiment 2, 10^−4 M): 56.7+/−15.4%
- Max Relaxation ([2]; Experiment 3, 100 μM): 57%
- Aortic Ring Effective Conc, [2]: 100 µM

Compound: Oc1cc(O)c2c(c1)O[C@H](c1ccc(O)c(O)c1)[C@@H](O)[C@H]2c1c(O)cc(O)c2c1O[C@H](c1ccc(O)c(O)c1)[C@H](O)C2 [C-(4β→8)-EC]
- relaxation response ([2]; Experiment 2, 10^−9 to 10^−4 M): No significant relaxation response
- cell-mediated MTT reduction [3]: significant decline of cell-mediated MTT reduction

Compound: O=C(O[C@H]1[C@@H](c2c(O)cc(O)c3c2O[C@H](c2ccc(O)c(O)c2)[C@@H](OC(=O)c2cc(O)c(O)c(O)c2)C3)c2c(O)cc(O)cc2O[C@@H]1c1ccc(O)c(O)c1)c1cc(O)c(O)c(O)c1 [C-(4β→8)-C digallate, (+)-Catechin-(4β,8)-(+)-Catechin Digallate]
- relaxation response, percent relaxation of NE constricted rings ([2]; Experiment 2, 10^−4 M): 72.6+/−9.8%
- Max Relaxation ([2]; Experiment 3, 100 μM): 73%
- Aortic Ring Effective Conc, [2]: 100 µM

Compound: Oc1cc(O)c2c(c1)O[C@H](c1ccc(O)c(O)c1)[C@H](O)[C@H]2c1c(O)cc(O)c2c1O[C@H](c1ccc(O)c(O)c1)[C@H](O)C2 [EC-(4β→8)-EC]
- relaxation response ([2]; Experiment 1, 10^−9 to 10^−4 M): No significant relaxation response
- MTT reduction [3, 4]: decline in MTT reduction

Compound: O=C(O[C@H]1[C@@H](c2c(O)cc(O)c3c2O[C@H](c2ccc(O)c(O)c2)[C@H](OC(=O)c2cc(O)c(O)c(O)c2)C3)c2c(O)cc(O)cc2O[C@@H]1c1ccc(O)c(O)c1)c1cc(O)c(O)c(O)c1 [C-(4β→8)-EC digallate, (+)-Catechin-(4β,8)-(−)-Epicatechin Digallate]
- NO production [1, 5]: statistically significant increases in NO production
- HUVEC Cells NOx, 24 hr ([1]; 1 µM): 1 uM, sign. Incr. NOx; 10 uM,
- HUVEC Cells NOx, 24 hr ([1]; 10 µM): no sign. effect on NOx, Cell
- HUVEC Cells NOx, 5 d [1]: No significant NOx increase;
- relaxation response, percent relaxation of NE constricted rings ([2]; Experiment 2, 10^−4 M): 72.4+/−17.4%
- relaxation response ([2]; Experiment 2, 10^−5 M): 33.1%
- Max Relaxation ([2]; Experiment 3, 10 μM and 100 μM): 72%
- cell-mediated MTT reduction [3]: significant decline of cell-mediated MTT reduction
- cell-mediated reduction of MTT [3, 5]: no effect on cell-mediated reduction of MTT
- loss of HUVEC MTT reduction as compared to controls [3, 6]: 47%
- HUVEC Cells cell toxicity, 24 hr ([3]; Table 2 summary, 24 hr, 10 uM): toxicity

Compound: Oc1cc(O)c2c(c1)O[C@H](c1ccc(O)c(O)c1)[C@@H](O)[C@H]2c1c(O)cc(O)c2c1O[C@H](c1ccc(O)c(O)c1)[C@@H](O)C2 [C-(4β→8)-C, (+)-Catechin-(4β,8)-(+)-Catechin]
- HUVEC NO production ([1]; Experiment 2, chronic, 5 subsequent 24 hour doses): increase in HUVEC NO production
- HUVEC Cells NOx, 2 hr [1]: no effect
- HUVEC Cells NOx, 24 hr [1]: no effect
- HUVEC Cells NOx, 5 d [1]: 10 uM, significant NOx increase
- relaxation response ([2]; Experiment 1, 10^−9 to 10^−4 M): No significant relaxation response
- relaxation response ([2]; Experiment 2, 10^−9 to 10^−4 M): No significant relaxation response

Compound: Oc1cc(O)c2c(c1)O[C@H](c1ccc(O)c(O)c1)[C@@H](O)[C@@H]2c1c(O)cc(O)c2c1O[C@H](c1ccc(O)c(O)c1)[C@@H](O)C2 [C-(4α→8)-C, (+)-Catechin-(4α,8)-(+)-Catechin]
- NO production ([1]; Experiment 1, 24 h after single dose, 10 μM): increased NO production
- NO production [1, 4]: did not modulate NO production
- HUVEC Cells NOx, 2 hr [1]: no effect
- HUVEC Cells NOx, 24 hr [1]: 10 uM, sign. NOx incr.
- HUVEC Cells NOx, 5 d [1]: no effect
- relaxation response, percent relaxation of NE constricted rings ([2]; Experiment 1, 10^−4 M): 60.80+/−15.09%
- Max Relaxation ([2]; Experiment 3, 100 μM): 61%
- Aortic Ring Effective Conc, [2]: 100 µM

Compound: O=C(O[C@@H]1Cc2c(O)cc(O)cc2O[C@@H]1c1ccc(O)c(O)c1)c1cc(O)c(O)c(O)c1 [ECG, Epicatechingallate, reference compound]
- relaxation response [2, 7]: No significant relaxation response
- cell-mediated MTT reduction [3]: significant decline of cell-mediated MTT reduction

Compound: CC(=O)OCC[N+](C)(C)C [acetylcholine, reference compound]
- concentration producing a relaxation response ([2]; positive control): 10^−7 M
- concentration reaching maximal relaxation ([2]; positive control): 10^−6 M

Compound: Oc1cc(O)c2c(c1)O[C@H](c1cc(O)c(O)c(O)c1)[C@H](O)C2 [EGC, Epigallocatechin, reference compound]
- relaxation response [2, 7]: No significant relaxation response

Compound: O=C(O[C@H]1[C@H](c2c(O)cc(O)c3c2O[C@H](c2ccc(O)c(O)c2)[C@@H](OC(=O)c2cc(O)c(O)c(O)c2)C3)c2c(O)cc(O)cc2O[C@@H]1c1ccc(O)c(O)c1)c1cc(O)c(O)c(O)c1 [C-(4α→8)-C digallate, (+)-Catechin-(4α,8)-(+)-Catechin Digallate]
- relaxation response, percent relaxation of NE constricted rings ([2]; Experiment 2, 10^−4 M): 71.7+/−11.6%
- Max Relaxation ([2]; Experiment 3, 100 μM): 72%
- Aortic Ring Effective Conc, [2]: 100 µM

Compound: (−)-Epicatechin-(4β,8)-(OMethyl)4-(−)-Epicatechin Digallate [EC-(4β→8)(OMethyl)4-EC digallate]
- HUVEC Cells NOx, 2 hr [1]: no effect
- HUVEC Cells NOx, 24 hr [1]: no effect
- HUVEC Cells NOx, 5 d [1]: 10 uM, significant NOx increase
- relaxation response ([2]; Experiment 1, 10^−9 to 10^−4 M): No significant relaxation response

Compound: COC(=O)[C@@H](N)CCCNC(=N)N[N+](=O)[O-] [L-NAME, reference compound]
- relaxation responses after pre-treatment with NOS inhibitor ([2]; vessels pre-treated with negative control): relaxation responses were attenuated

Compound: O=C(O[C@@H]1Cc2c(O)cc(O)cc2O[C@@H]1c1cc(O)c(O)c(O)c1)c1cc(O)c(O)c(O)c1 [EGCG, Epigallocatechingallate, reference compound]
- modulation of NO production [1, 6]: statistically significant ability to modulate NO production
- HUVEC Cells NOx, 24 hr [1]: 20 uM, sign. NOx inc.
- HUVEC Cells NOx, 5 d [1]: No significant NOx increase;
- relaxation response [2, 7]: No significant relaxation response

Compound: O=C(O)c1cc(O)c(O)c(O)c1 [Gallic Acid, reference compound]
- relaxation response [2, 7]: No significant relaxation response

Compound: Oc1cc(O)c2c(c1)O[C@H](c1ccc(O)c(O)c1)[C@@H](O)[C@@H]2c1c(O)cc(O)c2c1O[C@H](c1ccc(O)c(O)c1)[C@H](O)C2 [C-(4α→8)-EC]
- relaxation response ([2]; Experiment 2, 10^−9 to 10^−4 M): No significant relaxation response

Compound: Cc1c(O)c(C2c3c(O)cc(O)cc3OC(c3ccc(O)c(O)c3)C2O)c(O)c2c1OC(c1ccc(O)c(O)c1)C(O)C2 (stereo not drawn) [EC(4β→6)EC-8methyl]
- relaxation response ([2]; Experiment 2, 10^−9 to 10^−4 M): No significant relaxation response

Compound: CNC(=N)NCCC[C@H](N)C(=O)O [L-NNMA, reference compound]
- NO production, positive and negative controls ([1]; compared to vehicle): completely attenuated the acetylcholine and histamine-NO production
- NOx production, positive and negative controls ([1]; Experiment 2, single dose, 24 hours, compared to vehicle): completely attenuated the acetylcholine-induced NO production
